# Experimental data published in patent US20150164762A1, “USE OF ETHANOLAMINE PHOSPHATE” (priority 2012, published 2015).
# Tested on: BEAS-2B
# Experiment: Comprehensive gene expression analysis with Whole Human Genome DNA microarray after EP treatment
# Format: cell-based
# Description: Cells of the established normal human airway epithelial cell line BEAS-2B were used in the experiment. These cells were expansively cultured in 10% FBS RPMI-1640, and seeded at a density of 1×10^5/cm^2 on a 24-well plate. After 24 hours 0.1% FBS RPMI-1640 was substituted, and EP was administered to a final concentration of 0 or 1 mM (n=4). After 24 hours, the cells were used as the DNA microarray samples. RNA was extracted using a QIAGEN RNeasy Mini Kit. The DNA microarray test was performed using a Whole Human Genome DNA microarray 4×44K (Agilent), and the necessary labeling reagents and the like for the DNA microarray test were all from Agilent. The DNA microarray test data were analyzed statistically with GeneSpring (Agilent) dedicated analysis software, and gene function analysis (Gene Ontology (GO) analysis) was performed based on differential expression. The purpose of the GO analysis is to determine stochastically the degree to which gene sets with statistically significant differential expression correspond to known functional classification gene sets. […] The p-value is calculated according to the following formula.
# [1] = probe A_24_P215804, 1 mM EP, 24 h
# [2] = probe A_24_P218265, 1 mM EP, 24 h
# [3] = probe A_24_P226782, 1 mM EP, 24 h
# [4] = probe A_24_P231104, 1 mM EP, 24 h
# [5] = probe A_24_P261169, 1 mM EP, 24 h
# [6] = probe A_24_P273157, 1 mM EP, 24 h
# [7] = probe A_24_P295543, 1 mM EP, 24 h
# [8] = probe A_24_P302833, 1 mM EP, 24 h
# [9] = probe A_24_P307580, NM_001098523, EP vs control
# [10] = probe A_24_P313354, 1 mM EP, 24 h
# [11] = probe A_24_P313504, 1 mM EP, 24 h
# [12] = probe A_24_P317708, NM_138969, EP vs control
# [13] = probe A_24_P319113, 1 mM EP, 24 h
# [14] = probe A_24_P319983, 1 mM EP, 24 h
# [15] = probe A_24_P388659, 1 mM EP, 24 h
# [16] = probe A_24_P389409, NM_006129, EP vs control
# [17] = probe A_24_P389457, 1 mM EP, 24 h
# [18] = probe A_24_P413470, 1 mM EP, 24 h
# [19] = probe A_24_P722216, NM_018706, EP vs control
# [20] = probe A_24_P839629, 1 mM EP, 24 h
# [21] = probe A_24_P876522, NM_001008397, EP vs control
# [22] = probe A_24_P914519, S67289, EP vs control
# [23] = probe A_24_P928052, 1 mM EP, 24 h
# [24] = probe A_24_P934477, AJ000096, EP vs control
# [25] = probe A_24_P935986, 1 mM EP, 24 h
# [26] = probe A_24_P937256, 1 mM EP, 24 h
# [27] = probe A_24_P937317, NM_001014336, EP vs control
# [28] = probe A_24_P3305312, 1 mM EP, 24 h
# [29] = probe A_24_P9284523, 1 mM EP, 24 h
# [30] = probe A_32_P45009, NM_005896, EP vs control
# [31] = probe A_32_P75094, 1 mM EP, 24 h
# [32] = probe A_32_P89691, NM_003104, EP vs control
# [33] = probe A_32_P94798, 1 mM EP, 24 h
# [34] = probe A_32_P171043, 1 mM EP, 24 h
# [35] = probe A_32_P230808, 1 mM EP, 24 h
smiles,measurement,setting,value
"NCCOP(=O)(O)O [EP, Ethanolamine phosphate]",CKLF expression R*: Ratio to control,[1],1.551 times
same,CKLF expression log2 [ratio],[1],0.633
same,TNFRSF10B expression R*: Ratio to control,[2],0.475 times
same,TNFRSF10B expression log2 [ratio],[2],−1.073
same,SOX7 expression R: Ratio to control,[3],0.607 times
same,SOX7 expression log2 [ratio],[3],−0.720
same,LEPR expression R*: Ratio to control,[4],1.659 times
same,LEPR expression log2 [ratio],[4],0.730
same,SEMA4D expression R: Ratio to control,[5],0.558 times
same,SEMA4D expression log2 [ratio],[5],−0.842
same,OBSCN expression R: Ratio to control,[6],0.654 times
same,OBSCN expression log2 [ratio],[6],−0.613
same,BLOC1S2 expression R*: Ratio to control,[7],0.384 times
same,BLOC1S2 expression log2 [ratio],[7],−1.381
same,APPL1 expression R*: Ratio to control,[8],1.723 times
same,APPL1 expression log2 [ratio],[8],0.785
same,"HTATIP2 gene expression, R* ratio to control",[9],1.821 times
same,"HTATIP2 gene expression, log2 [ratio]",[9],0.865
same,NR2F2 expression R*: Ratio to control,[10],1.746 times
same,NR2F2 expression log2 [ratio],[10],0.804
same,PLK1 expression R*: Ratio to control,[11],1.939 times
same,PLK1 expression log2 [ratio],[11],0.955
same,"SDR16C5 gene expression, R* ratio to control",[12],2.349 times
same,"SDR16C5 gene expression, log2 [ratio]",[12],1.232
same,P2RX7 expression R: Ratio to control,[13],0.586 times
same,P2RX7 expression log2 [ratio],[13],−0.772
same,BCL10 expression R*: Ratio to control,[14],0.571 times
same,BCL10 expression log2 [ratio],[14],−0.310
same,ARHGAP24 expression R*: Ratio to control,[15],1.745 times
same,ARHGAP24 expression log2 [ratio],[15],0.803
same,"BMP1 gene expression, R* ratio to control",[16],0.650 times
same,"BMP1 gene expression, log2 [ratio]",[16],−0.622
same,CDKN1A expression R*: Ratio to control,[17],0.294 times
same,CDKN1A expression log2 [ratio],[17],−1.768
same,TP73 expression R*: Ratio to control,[18],0.482 times
same,TP73 expression log2 [ratio],[18],−1.054
same,"DHTKD1 gene expression, R* ratio to control",[19],1.429 times
same,"DHTKD1 gene expression, log2 [ratio]",[19],0.515
same,ZMAT3 expression R*: Ratio to control,[20],0.654 times
same,ZMAT3 expression log2 [ratio],[20],−0.612
same,"GPX8 gene expression, R* ratio to control",[21],1.602 times
same,"GPX8 gene expression, log2 [ratio]",[21],0.680
same,"CYBB gene expression, R* ratio to control",[22],1.958 times
same,"CYBB gene expression, log2 [ratio]",[22],0.968
same,NRP1 expression R*: Ratio to control,[23],1.990 times
same,NRP1 expression log2 [ratio],[23],0.993
same,"CBR3 gene expression, R* ratio to control",[24],2.429 times
same,"CBR3 gene expression, log2 [ratio]",[24],1.281
same,BCAT1 expression R*: Ratio to control,[25],1.721 times
same,BCAT1 expression log2 [ratio],[25],0.783
same,RELA expression R*: Ratio to control,[26],1.611 times
same,RELA expression log2 [ratio],[26],0.688
same,"IL31 gene expression, R* ratio to control",[27],0.296 times
same,"IL31 gene expression, log2 [ratio]",[27],−1.758
same,BBC3 expression R*: Ratio to control,[28],0.366 times
same,BBC3 expression log2 [ratio],[28],−1.452
same,MAP3K10 expression R*: Ratio to control,[29],0.570 times
same,MAP3K10 expression log2 [ratio],[29],−0.810
same,"IDH1 gene expression, R* ratio to control",[30],1.486 times
same,"IDH1 gene expression, log2 [ratio]",[30],0.571
same,A1FM2 expression R*: Ratio to control,[31],0.399 times
same,A1FM2 expression log2 [ratio],[31],−1.327
same,"SORD gene expression, R* ratio to control",[32],1.506 times
same,"SORD gene expression, log2 [ratio]",[32],0.590
same,ANXA2 expression R*: Ratio to control,[33],1.614 times
same,ANXA2 expression log2 [ratio],[33],0.691
same,CCBE1 expression R*: Ratio to control,[34],1.890 times
same,CCBE1 expression log2 [ratio],[34],0.918
same,KNG1 expression R*: Ratio to control,[35],0.358 times
same,KNG1 expression log2 [ratio],[35],−1.484
same,FAS expression,"probe A—23_P63896, 1 mM EP, 24 h",0.36 fold
same,catalase (CAT) expression,"probe A—23_P105138, 1 mM EP, 24 h",increased expression
same,NADPH:quinone reductase-1 (NQ01) expression,"probe A—23_P206661, 1 mM EP, 24 h",increased expression
same,thioredoxin (TXN) expression increase,"probe A—24_P175519, 1 mM EP, 24 h",1.4 times
